Test results: patent publication US6514510B1, “Insecticidal and miticidal compositions” (BASF Aktiengesellschaft, priority 1996, dated 2003)

Key:
[1] = tested on: Kanzawa spider mite (Tetranychus kanzawai kishida) which are resistant to Compound A; assay: Miticidal effect against female imagines of Kanzawa spider mite resistant to Compound A (leaf disk spray test); settings: for LC50 (ppm): single active ingredient, female imago, Compound A-resistant colony, mortality two days after spray treatment, probit method
Description: Round leaf disks (2 cm diameter) are cut out of a first leaf of kidney bean by using a leaf punch and 4 sheets of the leaf disks are placed on wet sanitary cotton on a PVC cup of 8 cm diameter.
Each PVC cup is sprayed with 3.5 ml of the test solution by using a rotary spray tower (manufactured by Mizuho Scientific Co., Ltd.) and stored in a constant temperature chamber held at 25±° C. (32 individuals are tested per concentration, 4-5 concentrations are evaluated per formulation and 2 performances are repeated). Two days after treatment, the number of living and dead female imagines of Kanzawa spider mite (Tetranychus kanzawai kishida) on the leaf disk is investigated and the mortality (%) is calculated according to the formula shown hereinbelow. From these mortality data, the LC50 values are obtained by conventional probit method. [formula]
For the above-mentioned values larger than 100, the larger value indicates a stronger synergistic action. For the value equal to 100, an additive action is indicated. For the values less than 100, the lesser value indicates a larger antagonistic action. A more detailed description of the calculation of the co-toxicity coefficient by the above-mentioned Sun and Johnson's method is the following. […] [formula]

[2] = tested on: susceptible strain of spider mite; assay: Effect of Compound A against a susceptible strain of spider mite; type: in vivo; settings: not mentioned in the table

SMILES	LC50 (ppm) [1] [ppm]	resistance against Compound A ([1]; resistant strain versus susceptible strain, LC50 values) [fold]	LC50 value [2]
Cc1c(COC(=O)[C@@H]2[C@H](/C=C(\Cl)C(F)(F)F)C2(C)C)cccc1-c1ccccc1 (racemic) [Bifenthrin, 2-methylbiphenyl-3-ylmethyl (Z)-(1RS,3RS)-3-(2-chloro-3,3,3-trifluoroprop-1-enyl)-2,2-dimethylcyclopropanecar-boxylate]	20	–	–
CC1(C)[C@H](C(=O)O[C@@H](C#N)c2cccc(Oc3ccccc3)c2)[C@@H]1/C=C(\Cl)C(F)(F)F (racemic) [Cyhalothrin, (RS)-α-cyano-3-phenoxybenzyl (Z)-(1RS,3RS)-3-(2-chloro-3,3,3-trifluoropropenyl)-2,2-dimethylcyclopropanecarboxylate]	590	–	–
CC1(C)C(C=C(Cl)Cl)C1C(=O)OC(C#N)c1ccc(F)c(Oc2ccccc2)c1 (racemic) [Cyfluthrin, (RS)-α-cyano4-fluoro-3-phenoxybenzyl (1RS,3RS; 1RS,3SR)-3-(2,2-dichlorovinyl)-2,2-dimethylcyclopropanecarboxylate]	1500	–	–
CC(C)[C@H](Nc1ccc(C(F)(F)F)cc1Cl)C(=O)OC(C#N)c1cccc(Oc2ccccc2)c1 (stereo partly drawn) [Fluvalinate, (RS)-α-cyano-3-phenoxy-benzyl N-(2-chloro-α,α,α,α-trifluoro-p-tolyl)-D-valinate]	180	–	–
CC1(C)C(C(=O)OC(C#N)c2cccc(Oc3ccccc3)c2)C1(C)C (racemic) [Fenpropathrin, (RS)-α-cyano-3-phenoxybenzyl 2,2,3,3-tetramethyl-cyclopropanecarboxylate]	290	–	–
CCOc1ccc(C(C)(C)COCc2cccc(Oc3ccccc3)c2)cc1 [Ethofenprox, 2-(4-ethoxyphenyl)-2-methylpropyl 3-phenoxybenzyl ether]	620	–	–
CC1(C)C(C=C(Cl)Cl)C1C(=O)OCc1cccc(Oc2ccccc2)c1 (stereo not drawn) [Permethrin, 3-phenoxybenzyl (1RS,3RS; 1RS,3RS)-3-(2,2-dichlorovinyl)-2,2-dimethylcyclopropanecarboxylate]	440	–	–
CCOCn1c(-c2ccc(Cl)cc2)c(C#N)c(Br)c1C(F)(F)F [Compound A, 4-bromo-2-(4-chlorophenyl)-1-(ethoxymethyl)-5-(trifluoromethyl)-pyrrole-3-carbonitrile]	1500	~300	about 5 ppm
CC1(C)C(C=C(Cl)Cl)C1C(=O)OC(C#N)c1cccc(Oc2ccccc2)c1 (racemic) [Cypermethrin, (RS)-α-cyano-3-phenoxybenzyl (1RS,3RS,1RS,3RS)-3-(2,2-dichlorovinyl)-2,2-dimethylcyclopro-panecarboxylate]	2500	–	–
